Experimental findings from US8716284B2, “Adamantyl diamide derivatives and uses of same” (H. Lundbeck A/S, priority 2008, dated 2014) are described below.

The target of one assay is T1, rat metabotropic glutamate receptor 5 (mGluR5) (Rattus norvegicus, UniProt P31424).
T1 construct: expressed in transfected cells; host or cells: HEK 293
T1 sequence (P31424 21-1171 isoform P31424-2 limits assumed): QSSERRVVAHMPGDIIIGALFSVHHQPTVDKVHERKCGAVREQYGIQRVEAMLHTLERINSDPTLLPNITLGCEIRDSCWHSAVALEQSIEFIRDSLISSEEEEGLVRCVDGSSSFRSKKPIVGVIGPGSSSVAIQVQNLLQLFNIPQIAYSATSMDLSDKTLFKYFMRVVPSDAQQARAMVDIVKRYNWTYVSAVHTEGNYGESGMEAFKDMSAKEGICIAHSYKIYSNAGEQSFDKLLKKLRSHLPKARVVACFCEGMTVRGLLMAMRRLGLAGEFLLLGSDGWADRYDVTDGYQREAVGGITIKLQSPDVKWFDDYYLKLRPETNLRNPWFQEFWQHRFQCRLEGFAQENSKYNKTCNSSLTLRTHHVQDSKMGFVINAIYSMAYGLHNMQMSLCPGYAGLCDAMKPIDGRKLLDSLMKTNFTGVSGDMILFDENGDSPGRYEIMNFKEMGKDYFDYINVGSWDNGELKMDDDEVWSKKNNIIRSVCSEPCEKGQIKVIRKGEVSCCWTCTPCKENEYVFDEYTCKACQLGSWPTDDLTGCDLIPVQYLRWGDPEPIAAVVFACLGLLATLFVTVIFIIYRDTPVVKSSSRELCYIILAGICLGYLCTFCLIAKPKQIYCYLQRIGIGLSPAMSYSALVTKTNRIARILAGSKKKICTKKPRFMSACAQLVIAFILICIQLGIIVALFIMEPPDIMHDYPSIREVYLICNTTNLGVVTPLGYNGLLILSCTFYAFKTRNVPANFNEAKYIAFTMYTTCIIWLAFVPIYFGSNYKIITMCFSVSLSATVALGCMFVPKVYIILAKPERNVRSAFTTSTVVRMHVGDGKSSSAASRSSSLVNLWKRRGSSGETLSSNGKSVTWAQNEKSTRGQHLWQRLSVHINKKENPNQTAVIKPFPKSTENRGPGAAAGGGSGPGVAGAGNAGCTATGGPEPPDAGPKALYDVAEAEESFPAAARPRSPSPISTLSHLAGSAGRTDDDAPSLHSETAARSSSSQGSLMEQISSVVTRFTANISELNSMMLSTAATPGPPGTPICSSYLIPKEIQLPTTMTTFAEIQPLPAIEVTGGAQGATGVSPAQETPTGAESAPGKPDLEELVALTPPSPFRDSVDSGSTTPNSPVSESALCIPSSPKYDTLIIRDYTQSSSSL
Put plainly: Calcium mobilization assay (FLIPR) for negative or positive allosteric activity, HEK 293 cells. It counts as cell-based. The settings on record: HEK293, negative allosteric modulation, inhibition of EC80 glutamate response; read-out: FLIPR maximum inhibition. On the procedure:
The cDNA for rat metabotropic glutamate receptor 5 (mGluR5) was a generous gift from S. Nakanishi (Kyoto University, Kyoto, Japan). The mGluR5 was stably expressed in a HEK 293 cell line and grown in Dulbecco's Modified Eagle Medium (DMEM) (Invitrogen, Carlsbad, Calif.) with supplements (10% bovine calf serum, 4 mM glutamine, 100 units/mL penicillin, 100 μg/mL streptomycin and 0.75 mM G1418) at 37° C., 5% CO2. Twenty-four hours prior to assay, cells were seeded into 384-well black wall microtiter plates coated with poly-D-lysine. Just prior to assay, media was aspirated and cells dye-loaded (25 μL/well) with 3 μM Fluo-4/0.01% pluronic acid in assay buffer (Hank's Balanced Saline Solution (HBSS)): 150 mM NaCl, 5 mM KCl, 1 mM CaCl2, 1 mM MgCl2, plus 20 mM N-2-Hydroxyethylpiperazine-N′-2-ethanesulfonic acid (HEPES), pH 7.4, 0.1% bovine serum albumin (BSA) and 2.5 mM probenicid) for 1 hour in 5% CO2 at 37° C. After excess dye was discarded, cells were washed in assay buffer and layered with a final volume equal to 30 μL/well. Basal fluorescence is monitored in a fluorometric imaging plate reader (FLIPR) (Molecular Devices, Sunnyvale, Calif.) with an excitation wavelength of 488 nm and an emission range of 500 to 560 nm. Laser excitation energy was adjusted so that basal fluorescence readings were approximately 10,000 relative fluorescent units. Cells were stimulated with an EC20 or an EC80 concentration of glutamate in the presence of a compound to be tested, both diluted in assay buffer, and relative fluorescent units were measured at defined intervals (exposure=0.6 sec) over a 3 min period at room temperature. Basal readings derived from negative controls were subtracted from all samples. Maximum change in fluorescence was calculated for each well. Concentration-response curves derived from the maximum change in fluorescence were analyzed by nonlinear regression (Hill equation). A negative modulator can be identified from these concentration-response curves if a compound produces a concentration dependent inhibition of the EC80 glutamate response. […] Examples 11-163 also were tested in the above assay.
A positive modulator can be identified from these concentration-response curves if a compound produces a concentration dependent increase in the EC20 glutamate response.
On to `CNC(=O)c1cccc(C(=O)NC23CC4CC(CC(NC(=O)c5ccccn5)(C4)C2)C3)n1` [Example 64, Pyridine-2,6-dicarboxylic acid 2-methylamide 6-({3-[(pyridine-2-carbonyl)-amino]-adamantan-1-yl}-amide)], for which the Emax fell in the range of 63 to 99%.
Same read-out and setting: to `Cc1cccc(C(=O)NC23CC4CC(CC(NC(=O)c5cc(C)on5)(C4)C2)C3)n1` [Example 39, 6-Methyl-pyridine-2-carboxylic acid {3-[(5-methyl-isoxazole-3-carbonyl)-amino]-adamantan-1-yl}-amide] belongs 63 to 99%.
Still for that read-out and setting: then `O=C(NC12CC3CC(C1)CC(NC(=O)c1cccc(N4CCC[C@H]4CO)n1)(C3)C2)c1cccc(F)c1` [Example 249, 6-((S)-2-Hydroxymethyl-pyrrolidin-1-yl)-pyridine-2-carboxylic acid [3-(3-fluoro-benzoylamino)-adamantan-1-yl]-amide], with 63 to 99%; and `N#Cc1cccc(C(=O)NC23CC4CC(C2)CC(NC(=O)c2cccc(C#N)c2)(C4)C3)c1` [Example 5, N,N′-(1,3-adamantylene)bis(3-cyano-benzamide)], with 90 to 99%; and `Cc1cccc(C(=O)NC23CC4CC(CC(NC(=O)c5ccc(F)cn5)(C4)C2)C3)n1` [Example 137, 5-Fluoro-pyridine-2-carboxylic acid {3-[(6-methyl-pyridine-2-carbonyl)-amino]-adamantan-1-yl}-amide], with 70 to 99%.
The same measure, in the same setting: then `Cc1cccc(C(=O)NC23CC4CC(C2)CC(NC(=O)c2cccc(N5CCC(O)C5)n2)(C4)C3)n1` (centres unmarked) [Example 205, 6-(3-Hydroxy-pyrrolidin-1-yl)-pyridine-2-carboxylic acid{3-[(6-methyl-pyridine-2-carbonyl)-amino]-adamantan-1-yl}-amide], with 63 to 99%; and `Cc1cncc(C(=O)NC23CC4CC(CC(NC(=O)c5ccc(F)c(C)c5)(C4)C2)C3)n1` [Example 166, 6-Methyl-pyrazine-2-carboxylic acid [3-(4-fluoro-3-methyl-benzoylamino)-adamantan-1-yl]-amide], with 63 to 99%.
`COc1ccnc(C(=O)NC23CC4CC(C2)CC(NC(=O)c2cncc(C)n2)(C4)C3)c1` [Example 153, 6-Methyl-pyrazine-2-carboxylic acid {3-[(4-methoxy-pyridine-2-carbonyl)-amino]-adamantan-1-yl}-amide]: the Emax lay in the range of 70 to 99%.
The same measure, in the same setting: then `Cc1cccc(C(=O)NC23CC4CC(C2)CC(NC(=O)c2cccc(N5CCOCC5)n2)(C4)C3)n1` [Example 22, 6-Morpholin-4-yl-pyridine-2-carboxylic acid-{3-[(6-methyl-pyridine-2-carbonyl)-amino]-adamantan-1-yl}-amide], with 63 to 99%; and `NC(=O)[C@@H]1CCCN1c1cccc(C(=O)NC23CC4CC(CC(NC(=O)c5cccc(F)c5)(C4)C2)C3)n1` [Example 251, 6-((S)-2-Carbamoyl-pyrrolidin-1-yl)-pyridine-2-carboxylic acid [3-(3-fluoro-benzoylamino)-adamantan-1-yl]-amide], with 63 to 99%; and `O=C(NC12CC3CC(C1)CC(NC(=O)c1cccs1)(C3)C2)c1cccs1` [Example 14, N,N′-(1,3-adamantylene)bis(thiophene-2-carboxamide)], with 63 to 99%.
The same measure, in the same setting: then `O=C(NC12CC3CC(C1)CC(NC(=O)c1cn4ccccc4n1)(C3)C2)c1cccc(F)c1` [Example 100, Imidazo[1,2-a]pyridine-2-carboxylic acid [3-(3-fluoro-benzoylamino)-adamantan-1-yl]-amide], with 63 to 99%.
On the same count and under the same terms, to `Cc1ccc2nc(C(=O)NC34CC5CC(CC(NC(=O)c6cccc(C)n6)(C5)C3)C4)cn2c1` [Example 54, 6-Methyl-imidazo[1,2-a]pyridine-2-carboxylic acid {3-[(6-methyl-pyridine-2-carbonyl)-amino]-adamantan-1-yl}-amide] belongs 63 to 99%.
Take `O=C(NC12CC3CC(C1)CC(NC(=O)c1cccc(N4CCOCC4)n1)(C3)C2)c1cccc(F)c1` [Example 215, 6-Morpholin-4-yl-pyridine-2-carboxylic acid [3-(3-fluoro-benzoylamino)-adamantan-1-yl]-amide]: the Emax was 63 to 99%.
On the same count and under the same terms, then `O=C(NC12CC3CC(C1)CC(NC(=O)c1onc4ccccc14)(C3)C2)c1ccccn1` [Example 62, Benzo[c]isoxazole-3-carboxylic acid {3-[(pyridine-2-carbonyl)-amino]-adamantan-1-yl}-amide], with 63 to 99%; and `Cc1cnc(C(=O)NC23CC4CC(C2)CC(NC(=O)c2ccn(C)n2)(C4)C3)cn1` [Example 18, 5-Methyl-pyrazine-2-carboxylic acid {3-[(1-methyl-1H-pyrazole-3-carbonyl)-amino]-adamantan-1-yl}-amide], with 63 to 99%; and `Cc1ccnc(C(=O)NC23CC4CC(CC(NC(=O)c5ccnc(C)n5)(C4)C2)C3)n1` [Example 193, 2-Methyl-pyrimidine-4-carboxylic acid {3-[(4-methyl-pyrimidine-2-carbonyl)-amino]-adamantan-1-yl}-amide], with 63 to 99%.
The same measure, in the same setting: to `Cc1cccc(C(=O)NC23CC4CC(C2)CC(NC(=O)c2cccc(C(C)(C)O)n2)(C4)C3)n1` [Example 144, 6-Methyl-pyridine-2-carboxylic acid (3-{[6-(1-hydroxy-1-methyl-ethyl)-pyridine-2-carbonyl]-amino}-adamantan-1-yl)-amide] belongs 70 to 99%; to `Cc1cccc(C(=O)NC23CC4CC(C2)CC(NC(=O)c2cccc(NCCCN(C)C)n2)(C4)C3)n1` [Example 236, 6-(3-Dimethylamino-propylamino)-pyridine-2-carboxylic acid {3-[(6-methyl-pyridine-2-carbonyl)-amino]-adamantan-1-yl}-amide], 63 to 99%.
On the same count and under the same terms, then `Cc1cccc(C(=O)NC23CC4CC(C2)CC(NC(=O)c2csc(C)n2)(C4)C3)n1` [Example 136, 6-Methyl-pyridine-2-carboxylic acid {3-[(2-methyl-thiazole-4-carbonyl)-amino]-adamantan-1-yl}-amide], with 70 to 99%; and `Cn1nc(C(=O)NC23CC4CC(CC(NC(=O)c5ccccn5)(C4)C2)C3)cc1-c1ccco1` [Example 9, Pyridine-2-carboxylic acid {3-[(5-furan-2-yl-1-methyl-1H-pyrazole-3-carbonyl)-amino]-adamantan-1-yl}-amide], with 90 to 99%; and `Cc1cccc(C(=O)NC23CC4CC(C2)CC(NC(=O)c2cccc(Cl)n2)(C4)C3)n1` [Example 57, 6-Chloro-pyridine-2-carboxylic acid {3-[(6-methyl-pyridine-2-carbonyl)-amino]-adamantan-1-yl}-amide], with 63 to 99%.
`CN(CCO)c1cccc(C(=O)NC23CC4CC(CC(NC(=O)c5cccc(F)c5)(C4)C2)C3)n1` [Example 213, 6-[(2-Hydroxy-ethyl)-methyl-amino]-pyridine-2-carboxylic acid [3-(3-fluoro-benzoylamino)-adamantan-1-yl]-amide]: the Emax was 63 to 99%.
In the case of `O=C(NC12CC3CC(C1)CC(NC(=O)c1cccc(-n4ccnc4)n1)(C3)C2)c1ccccn1` [Example 253, 6-Imidazol-1-yl-pyridine-2-carboxylic acid {3-[(pyridine-2-carbonyl)-amino]-adamantan-1-yl}-amide], the Emax was 63 to 99%.
Same read-out and setting: then `Cc1cccc(C(=O)NC23CC4CC(C2)CC(NC(=O)C2CCC2)(C4)C3)n1` [Example 46, 6-Methyl-pyridine-2-carboxylic acid [3-(cyclobutanecarbonyl-amino)-adamantan-1-yl]-amide], with 63 to 99%.
Same read-out and setting: then `O=C(NC12CC3CC(C1)CC(NC(=O)c1ccncn1)(C3)C2)c1ccccn1` [Example 60, Pyrimidine-4-carboxylic acid {3-[(pyridine-2-carbonyl)-amino]-adamantan-1-yl}-amide], with 63 to 99%.
On the same count and under the same terms, to `Cc1cccc(C(=O)NC23CC4CC(C2)CC(NC(=O)c2cccc(-n5ccnc5)n2)(C4)C3)n1` [Example 254, 6-Imidazol-1-yl-pyridine-2-carboxylic acid {3-[(6-methyl-pyridine-2-carbonyl)-amino]-adamantan-1-yl}-amide] belongs 63 to 99%.

Staying with this assay, now noted: positive modulation, increase in EC20 glutamate response.
With `Cc1cncc(C(=O)NC23CC4CC(CC(NC(=O)c5cc(-c6ccc(F)cc6)ncn5)(C4)C2)C3)n1` [Example 256, 6-(4-Fluoro-phenyl)-pyimidine-4-carboxylic acid {3-[(6-methyl-pyrazine-2-carbonyl)-aminpo]-adamantan-1-yl}-amide], the EC50 was 300 nM and the maximum modulation is given as 170%.
